Data: a melting point compilation (Tetko et al.; mined from patent text by program, amines drawn as free bases though some values may be those of a salt)

Compound | melting point [°C]
COC(=O)c1cc(SC(=O)N(C)C)cc(SC(=O)N(C)C)c1 | 128 to 130
Cc1cc(-n2ccnc2)c2cccc(OCc3c(Cl)ccc(S(=O)(=O)N4CCCC4C(=O)NCC4CCN(CC(=O)CC(=O)O)CC4)c3Cl)c2n1 (stereo not given) | 125
Cc1cc(NC(=O)Oc2ccc([N+](=O)[O-])cc2)cc(C(F)(F)F)c1 | 136 to 138
Cc1oc(C(N)=O)c(C)c1-c1nc2ccc(Oc3ccccc3)cc2[nH]1 | 248 to 251
OC1CCc2ccc(Cl)cc2C1 (stereo not given) | 79 to 81
CC(=O)c1c(Nc2ccccc2)n[nH]c1C | 246 to 247
COC(=O)C(=CC1C(C(=O)O)C1(C)C)OC (stereo not given) | 78
O=C(OCc1c(F)c(F)nc(F)c1Cl)c1ccccc1 | 60
Clc1cnc(Br)c(Cl)c1 | 37 to 38
CC(=O)OC1CSC(Oc2cccc(-c3cnccn3)c2)C(OC(C)=O)C1OC(C)=O (stereo not given) | 92
O=C1c2cc(-c3ccccc3)ccc2-c2c1c1ccc([N+](=O)[O-])cc1c(=O)n2CCCNS(=O)(=O)c1ccccc1 | 246 to 247
CC(C)(C)n1nc2c(=O)[nH]c3ccccc3c2c1CO | 295 to 297
CS(=O)(=O)c1ccc(-n2cncc2-c2cnc(Cl)c(Cl)c2)cc1 | 192 to 198
CC1=C(C(=O)OC(C)C)C(c2cccc([N+](=O)[O-])c2)n2c(cc(=O)n2C(=O)c2ccccc2)N1 (stereo not given) | 201 to 203
COc1nc(Nc2ccc(F)cc2F)c(C(=O)Cl)cc1F | 153 to 154
Cc1cccc(C(=O)c2ccc(F)cc2)n1 | 53 to 54
Fc1cc2c(cc1F)CC(n1c(-c3nnn[nH]3)c[nH]c1=S)C2 | 142 to 147
O=C(c1ccc2ccccc2c1)P1(=O)Oc2ccccc2-c2ccccc21 (stereo not given) | 151 to 153
C[C@@H](n1ncn(-c2ccc(F)cc2)c1=O)[C@@]1(c2ccc(F)cc2F)CO1 | 100 to 101
CS(=O)(=O)c1cccc(Nc2cc(-c3ccccc3O)ncn2)c1 | 214 to 216
CN(O)CCCc1ccc2c(c1)C(=O)c1ccccc1CO2 | 113 to 114
Cc1sc(-c2ccccc2)nc1CCOc1ccc(N)cn1 | 89 to 91
Nc1ncc(CN2CCN(c3ccccc3)CC2)c2nc(-c3ccco3)nn12 | 185 to 187
CS(=O)(=O)n1c(Cc2ccc(C(=O)O)cc2)cc2cc(Cl)ccc21 | 244
Cc1ccc2c(cc(CCC(=O)O)n2S(=O)(=O)c2ccccc2)n1 | 88 to 92

Compound | melting point [°C]
CNc1sc(Cl)cc1C(=O)c1ccccc1F | 93 to 94
O=[N+]([O-])c1cccc(/C=C/c2nc(C3CC3)cs2)c1 | 90 to 95
CC12CCC3c4ccc(C(=O)O)cc4CCC3C1CCC2C(=O)c1ccc(S(C)(=O)=O)cc1 (stereo not given) | 283 to 286
Cc1ccc(-c2c(C#N)cccc2C#N)cc1 | 184 to 186
CS(=O)(=O)c1ccc(COc2cc(C=C3SC(=S)N(CC(=O)O)C3=O)ccc2OCc2ccccc2)cc1 | 207 to 211
O=C(O)Cc1nn(Cc2ccc(Br)c(Cl)c2)c(=O)c2ccccc12 | 186
COc1ccc2cc(CO)ccc2c1Br | 85 to 87
O=C(C[N+](=O)[O-])c1ccc2c(c1)CCN2 | 172 to 174
CS(=O)(=O)c1ccc(C(CC2CCCC2)C(=O)Nc2nccs2)cc1F (stereo not given) | 200 to 202
CC(=O)N1CCc2cc(C3=NNC(=O)CC3C)ccc21 (stereo not given) | 258 to 261
CCOC(=O)N1CC[C@@H](N)[C@H](O)C1 (relative stereo) | 76.9
O=C1c2ccccc2C(=O)c2sc(-c3ccco3)nc21 | > 260
COC(=O)Nc1ccc(OCc2nc3ccc(OC)cc3s2)cc1C | 123 to 125
COc1c(C2CCN(CCCCNC(=O)c3[nH]nc(-c4ccc(C#N)cc4)c3C)CC2)ccc2c1CCCC2 | 222
O=C(NC(CO)CO)OCc1ccccc1 | 104 to 106
CN(C)c1cncc(I)n1 | 46 to 48
O=C(c1cc(C(F)(F)F)cc(C(F)(F)F)c1)N1CCN(CCCC2(c3ccc(F)cc3)OCCO2)C[C@H]1Cc1c[nH]c2ccccc12 | 145 to 146
CCOC(=O)C1=Cc2cc(Cl)cc(-c3cccc(OC)c3)c2OC1C(F)(F)F (stereo not given) | 93.7 to 95.1
Cc1ccc(F)cc1C(C)(C)CC(O)(Cn1ccc(=O)c2sccc21)C(F)(F)F (stereo not given) | 175 to 176
COC(=O)[C@@H]1C[C@@H](O)CN1C(=O)c1ccc(C#N)cc1 | 101 to 102
CN(c1cccc2cc(C(=O)NCC3(SCc4ccccc4)CCN(C(=O)OC(C)(C)C)CC3)[nH]c12)S(=O)(=O)c1cccs1 | 195 to 197
CC(C)COc1nc(N)c2ncn(C3CCCCC3)c2n1 | 123 to 134
CCCCCCCCCCCCCCOc1cc(O)cc(C(=O)OC)c1 | 92 to 94
CSCc1cnc(Cl)nc1 | 56 to 57
CCc1ccc(C(O)CNC(=C[N+](=O)[O-])NCCSCc2cc(C)c(CN(C)C)s2)cc1 (stereo not given) | 112 to 115
